Reference: PubChem BioAssay AID2060485 (Molecular Pharmacology Branch, DTP, NCI, 2025)

Tested on: A375 multi-cell spheroids with HUVEC/MSC, viability
Test: Anticancer human tumor A375 cell line growth inhibition [GQUAD];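 also: spheroids exposed to compounds for seven days before readout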
Details: for IC50: curve of first compound; for viability, T/C: stronger effect = lower value
Source text: DNA G-quadruplex Stabilizer Agents in Combinations in Complex Spheroids
A high-throughput screen of multi-cell type tumor spheroids was designed to identify active combinations of DNA G-quadruplex stabilizer agents and targeted small molecules. Complex spheroids include a stromal component modeled by human endothelial cells (HUVEC) and fibroblasts modeled by human mesenchymal stem cells (MSCs). The concentration ranges selected for each drug and investigational agent were based upon clinically achievable concentrations if the clinical Cmax of the agent was known.
Compounds. The drugs and investigational agents: pidnarulex (CX-5461; NSC782164), APTO-253 (NSC789042), BRACO-19 (NSC847499), peposertib (NSC802822), ceralasertib (NSC780249), elimusertib (NSC800525), camonsertib (NSC841442), AZD-1390 (NSC803789), olaparib (NSC753686), talazoparib (NSC767125), ART-558 (NSC835418), sotorasib (NSC818433), MRTX-1133 (NSC836407), SN-38 (NSC673596), topotecan (NSC609699), etoposide (NSC141540), doxorubicin (NSC123127), gemcitabine (NSC613327), 5-fluorouracil (NSC19893), paclitaxel (NSC125973), vemurafenib (NSC761431), panobinostat (NSC761190), R-306465 (JNJ-16241199; NSC773264), adavosertib (NSC754352), TP-3654 (NSC805149), carboplatin (NSC241240), KSQ-4279 (NSC840948), and staurosporine (NSC755774) were obtained from the National Cancer Institute (NCI) Developmental Therapeutics Program Chemical Repository (34). The FDA-approved anticancer drug set is available from the NCI Developmental Therapeutics Program. […] The stock solutions were prepared in dimethyl sulfoxide (DMSO, Sigma-Aldrich, St. Louis, MO, cat. D2650) at 800-fold the tested concentration and stored at -70 degrees C prior to their use. All drugs and investigational agents were tested over a range starting from a high concentration at or near the clinical Cmax and decreasing in half-log increments. If the clinical Cmax for an agent had not been determined, the highest concentration tested was 10 microM.
2.3 Cell Culture. All cells were maintained in an incubator at 37 degrees C and 5% CO2 with 95% humidity. The PDC lines were cultured according to standard operating procedures established by the NCI PDMR. All PDCs were thawed and cultured in Matrigel-coated flasks prepared with a working solution of 1X Ham's F-12 nutrient mix, without supplementation (Invitrogen, cat. 11765054), 100 U/mL penicillin-streptomycin (Invitrogen, cat. 15140122), and 2.5% Matrigel (Corning Inc., cat. 354248) for the first three passages. The 857933-349-R-J2-PDC line was cultured in 6C/Colon 1B media, which includes advanced DMEM/F-12 (Thermo Fisher Scientific, cat. 12634028), 10 mM HEPES (Thermo Fisher Scientific, cat. 15630080), 1X GlutaMAX supplement (Thermo Fisher Scientific, cat. 35050061), 0.1 mg/mL primocin (InvivoGen, cat. ant-pm-2), 10% defined fetal bovine serum, heat inactivated (HyClone Laboratories Inc., cat. SH30070.03HI), 50% L-WRN conditioned media (ATCC, cat. CRL-3276), 1.25 mM N-Acetyl-L-cysteine (Sigma-Aldrich, cat. A9165), 10 mM nicotinamide (Sigma-Aldrich, cat. N0636), 1X B-27 supplement (Thermo Fisher Scientific, cat. 17504044), 1X N-2 supplement (Thermo Fisher Scientific, cat. 17502048), 10 microM Y-27632 dihydrochloride (Tocris Bioscience, cat. 1254), and 50 ng/mL human EGF recombinant protein (Thermo Fisher Scientific, cat. PHG0311). The 485176-168-R4-J1-PDC line was cultured in Panc media, which includes all 6C/Colon 1B media components plus 100 ng/mL human FGF-10 (Thermo Fisher Scientific, cat. 100-26), 500 nM SB-431542 (Selleckchem, cat. S1067), and gastrin (Tocris, cat. 3006).
[…]

[1] = second compound 0.0316 µM, first compound 0.0316 µM
[2] = second compound 0.0316 µM, first compound 0.316 µM
[3] = second compound 0.1 µM, first compound 0.0316 µM
[4] = second compound 0.1 µM, first compound 0.316 µM
[5] = second compound 0.316 µM, first compound 0.0316 µM
[6] = second compound 0.316 µM, first compound 0.316 µM
[7] = second compound 1 µM, first compound 0.0316 µM
[8] = second compound 1 µM, first compound 0.316 µM
[9] = second compound 3.16 µM, first compound 0.0316 µM
[10] = second compound 3.16 µM, first compound 0.316 µM
[11] = second compound 10 µM, first compound 0.0316 µM
[12] = second compound 10 µM, first compound 0.316 µM

Structure (SMILES): CCc1c2c(nc3ccc(O)cc13)-c1cc3c(c(=O)n1C2)COC(=O)[C@]3(O)CC + CN(C)c1ccc(Nc2c3ccc(NC(=O)CCN4CCCC4)cc3nc3cc(NC(=O)CCN4CCCC4)ccc23)cc1
- IC50 (second compound 0.0316 µM): < 0.000999 µM
- IC50 (second compound 0.1 µM): < 0.000999 µM
- IC50 (second compound 0.316 µM): < 0.000999 µM
- IC50 (second compound 1 µM): < 0.000999 µM
- IC50 (second compound 3.16 µM): < 0.000999 µM
- IC50 (second compound 10 µM): < 0.000999 µM
- viability, T/C (second compound 0.0316 µM, first compound 0.000999 µM): 41.2%
- viability, T/C (second compound 0.0316 µM, first compound 0.00316 µM): 16.1%
- viability, T/C (second compound 0.0316 µM, first compound 0.00999 µM): 10.6%
- viability, T/C [1]: 15%
- viability, T/C (second compound 0.0316 µM, first compound 0.0999 µM): 5.91%
- viability, T/C [2]: 0.85%
- viability, T/C (second compound 0.1 µM, first compound 0.000999 µM): 39%
- viability, T/C (second compound 0.1 µM, first compound 0.00316 µM): 14.4%
- viability, T/C (second compound 0.1 µM, first compound 0.00999 µM): 11.6%
- viability, T/C [3]: 13.6%
- viability, T/C (second compound 0.1 µM, first compound 0.0999 µM): 5.7%
- viability, T/C [4]: 0.92%
- viability, T/C (second compound 0.316 µM, first compound 0.000999 µM): 40.8%
- viability, T/C (second compound 0.316 µM, first compound 0.00316 µM): 14.2%
- viability, T/C (second compound 0.316 µM, first compound 0.00999 µM): 11.6%
- viability, T/C [5]: 15.8%
- viability, T/C (second compound 0.316 µM, first compound 0.0999 µM): 5.11%
- viability, T/C [6]: 1.17%
- viability, T/C (second compound 1 µM, first compound 0.000999 µM): 44.3%
- viability, T/C (second compound 1 µM, first compound 0.00316 µM): 17.9%
- viability, T/C (second compound 1 µM, first compound 0.00999 µM): 12.2%
- viability, T/C [7]: 15.3%
- viability, T/C (second compound 1 µM, first compound 0.0999 µM): 5%
- viability, T/C [8]: 0.92%
- viability, T/C (second compound 3.16 µM, first compound 0.000999 µM): 45.6%
- viability, T/C (second compound 3.16 µM, first compound 0.00316 µM): 14.8%
- viability, T/C (second compound 3.16 µM, first compound 0.00999 µM): 10.9%
- viability, T/C [9]: 12.6%
- viability, T/C (second compound 3.16 µM, first compound 0.0999 µM): 6.28%
- viability, T/C [10]: 1.02%
- viability, T/C (second compound 10 µM, first compound 0.000999 µM): 46.9%
- viability, T/C (second compound 10 µM, first compound 0.00316 µM): 18.2%
- viability, T/C (second compound 10 µM, first compound 0.00999 µM): 10.9%
- viability, T/C [11]: 13%
- viability, T/C (second compound 10 µM, first compound 0.0999 µM): 6.82%
- viability, T/C [12]: 0.96%

Structure (SMILES): Cc1cccc(N(C)C(=O)C2C(O)CCN2c2nc(C)cc(C(F)(F)F)c2C#N)c1 (centres undefined) + CN(C)c1ccc(Nc2c3ccc(NC(=O)CCN4CCCC4)cc3nc3cc(NC(=O)CCN4CCCC4)ccc23)cc1
- IC50 (second compound 0.0316 µM): > 10 µM
- IC50 (second compound 0.1 µM): > 10 µM
- IC50 (second compound 0.316 µM): > 10 µM
- IC50 (second compound 1 µM): > 10 µM
- IC50 (second compound 3.16 µM): > 10 µM
- IC50 (second compound 10 µM): > 10 µM
- viability, T/C [1]: 103%
- viability, T/C (second compound 0.0316 µM, first compound 0.1 µM): 98.6%
- viability, T/C [2]: 104%
- viability, T/C (second compound 0.0316 µM, first compound 1 µM): 105%
- viability, T/C (second compound 0.0316 µM, first compound 3.16 µM): 105%
- viability, T/C (second compound 0.0316 µM, first compound 10 µM): 102%
- viability, T/C [3]: 113%
- viability, T/C (second compound 0.1 µM, first compound 0.1 µM): 104%
- viability, T/C [4]: 99.8%
- viability, T/C (second compound 0.1 µM, first compound 1 µM): 97%
- viability, T/C (second compound 0.1 µM, first compound 3.16 µM): 107%
- viability, T/C (second compound 0.1 µM, first compound 10 µM): 102%
- viability, T/C [5]: 113%
- viability, T/C (second compound 0.316 µM, first compound 0.1 µM): 101%
- viability, T/C [6]: 101%
- viability, T/C (second compound 0.316 µM, first compound 1 µM): 109%
- viability, T/C (second compound 0.316 µM, first compound 3.16 µM): 99.1%
- viability, T/C (second compound 0.316 µM, first compound 10 µM): 95.7%
- viability, T/C [7]: 107%
- viability, T/C (second compound 1 µM, first compound 0.1 µM): 98.3%
- viability, T/C [8]: 97.3%
- viability, T/C (second compound 1 µM, first compound 1 µM): 96.9%
- viability, T/C (second compound 1 µM, first compound 3.16 µM): 104%
- viability, T/C (second compound 1 µM, first compound 10 µM): 97.3%
- viability, T/C [9]: 117%
- viability, T/C (second compound 3.16 µM, first compound 0.1 µM): 106%
- viability, T/C [10]: 93.9%
- viability, T/C (second compound 3.16 µM, first compound 1 µM): 101%
- viability, T/C (second compound 3.16 µM, first compound 3.16 µM): 98%
- viability, T/C (second compound 3.16 µM, first compound 10 µM): 100%
- viability, T/C [11]: 95.7%
- viability, T/C (second compound 10 µM, first compound 0.1 µM): 96.3%
- viability, T/C [12]: 89.9%
- viability, T/C (second compound 10 µM, first compound 1 µM): 93.7%
- viability, T/C (second compound 10 µM, first compound 3.16 µM): 96.5%
- viability, T/C (second compound 10 µM, first compound 10 µM): 74.3%
